According to the supplement of paper PMC10307832:

What was measured:
Experiment in all cases: relative viability (nuclei count vs DMSO), 5 days (fraction); higher = more cells survive
Gemcitabine + Foretinib = compound: Nc1ccn([C@@H]2O[C@H](CO)[C@@H](O)C2(F)F)c(=O)n1 [Gemcitabine] + COc1cc2c(Oc3ccc(NC(=O)C4(C(=O)Nc5ccc(F)cc5)CC4)cc3F)ccnc2cc1OCCCN1CCOCC1 [Foretinib] (partner 0.25 µM)
In short: (§1)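 Relative viability divides the nuclei count in treated wells by that in vehicle wells. Lung cancer cell lines were seeded in 1536-well plates, dosed by pin tool the next day, and fixed and stained after 5 days in one step with final 0.05% Triton X-100, 1% formaldehyde and 1 ug/ml Hoechst. Dosing was a single drug or a fixed anchor-drug dose plus five library-drug doses (not always all listed) in √10 steps, and values are medians of duplicate plates imaged at 4×.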

Gemcitabine + Luminespib = compound: Nc1ccn([C@@H]2O[C@H](CO)[C@@H](O)C2(F)F)c(=O)n1 [Gemcitabine] + CCNC(=O)c1noc(-c2cc(C(C)C)c(O)cc2O)c1-c1ccc(CN2CCOCC2)cc1 [Luminespib] (partner 0.01 µM)
In short: as §1

Gemcitabine + Decitabine = compound: Nc1ccn([C@@H]2O[C@H](CO)[C@@H](O)C2(F)F)c(=O)n1 [Gemcitabine] + Nc1ncn([C@H]2C[C@H](O)[C@@H](CO)O2)c(=O)n1 [Decitabine] (partner 2 µM)
In short: as §1

Gemcitabine + Dasatinib = compound: Nc1ccn([C@@H]2O[C@H](CO)[C@@H](O)C2(F)F)c(=O)n1 [Gemcitabine] + Cc1nc(Nc2ncc(C(=O)Nc3c(C)cccc3Cl)s2)cc(N2CCN(CCO)CC2)n1 [Dasatinib] (partner 0.075 µM)
In short: as §1

| Cell Line | relative viability (Gemcitabine + Foretinib; first compound 0.001 µM) | relative viability (Gemcitabine + Foretinib; first compound 0.003162 µM) | relative viability (Gemcitabine + Foretinib; first compound 0.01 µM) | relative viability (Gemcitabine + Foretinib; first compound 0.03162 µM) | relative viability (Gemcitabine + Foretinib; first compound 0.1 µM) | relative viability (Gemcitabine + Luminespib; first compound 0.001 µM) | relative viability (Gemcitabine + Luminespib; first compound 0.003162 µM) | relative viability (Gemcitabine + Luminespib; first compound 0.01 µM) | relative viability (Gemcitabine + Luminespib; first compound 0.03162 µM) | relative viability (Gemcitabine + Luminespib; first compound 0.1 µM) | relative viability (Gemcitabine + Decitabine; first compound 0.001 µM) | relative viability (Gemcitabine + Decitabine; first compound 0.003162 µM) | relative viability (Gemcitabine + Decitabine; first compound 0.01 µM) | relative viability (Gemcitabine + Decitabine; first compound 0.03162 µM) | relative viability (Gemcitabine + Decitabine; first compound 0.1 µM) | relative viability (Gemcitabine + Dasatinib; first compound 0.001 µM) | relative viability (Gemcitabine + Dasatinib; first compound 0.003162 µM) | relative viability (Gemcitabine + Dasatinib; first compound 0.01 µM) | relative viability (Gemcitabine + Dasatinib; first compound 0.03162 µM) | relative viability (Gemcitabine + Dasatinib; first compound 0.1 µM) |
| --- | --- | --- | --- | --- | --- | --- | --- | --- | --- | --- | --- | --- | --- | --- | --- | --- | --- | --- | --- | --- |
| NCI-H838 | 1.12 | 1.26 | 0.999 | 0.435 | 0.17 | 0.286 | 0.289 | 0.241 | 0.292 | 0.18 | 0.442 | 0.485 | 0.365 | 0.281 | 0.187 | 0.293 | 0.287 | 0.318 | 0.261 | 0.136 |
| NCI-H1355 | 0.858 | 0.7 | 0.247 | 0.2 | 0.187 | 0.724 | 0.62 | 0.24 | 0.22 | 0.213 | 0.338 | 0.294 | 0.25 | 0.198 | 0.191 | 0.813 | 0.695 | 0.226 | 0.196 | 0.143 |
| NCI-H1395 | 0.922 | 0.763 | 0.541 | 0.388 | 0.349 | 0.739 | 0.607 | 0.391 | 0.361 | 0.343 | 0.736 | 0.592 | 0.47 | 0.422 | 0.365 | 0.409 | 0.368 | 0.371 | 0.321 | 0.31 |
| NCI-H1437 | 1.28 | 1.14 | 0.867 | 0.442 | 0.209 | 1.08 | 1.02 | 0.645 | 0.391 | 0.191 | 0.572 | 0.553 | 0.515 | 0.364 | 0.269 | 0.392 | 0.274 | 0.285 | 0.139 | 0.107 |
| NCI-H1650 | 1.28 | 0.666 | 0.374 | 0.179 | 0.145 | 0.197 | 0.185 | 0.177 | 0.197 | 0.177 | 0.467 | 0.369 | 0.239 | 0.222 | 0.155 | 0.297 | 0.241 | 0.141 | 0.088 | 0.115 |
| NCI-H1651 | 0.805 | 0.771 | 0.596 | 0.137 | 0.0964 | 0.906 | 0.893 | 0.731 | 0.278 | 0.134 | 0.639 | 0.406 | 0.596 | 0.509 | 0.172 | 0.412 | 0.495 | 0.257 | 0.0946 | 0.0687 |
| NCI-H1666 | 0.9 | 0.991 | 0.889 | 0.619 | 0.428 | 1.01 | 0.937 | 0.957 | 0.595 | 0.393 | 0.686 | 0.55 | 0.712 | 0.538 | 0.447 | 0.797 | 0.796 | 0.715 | 0.52 | 0.375 |
| NCI-H1734 | 0.781 | 0.653 | 0.287 | 0.131 | 0.126 | 0.159 | 0.157 | 0.119 | 0.136 | 0.119 | 0.536 | 0.343 | 0.192 | 0.134 | 0.102 | 0.385 | 0.354 | 0.111 | 0.0942 | 0.091 |
